Measurements published in paper PMC2898741 (Biochemistry, 2009).

Columns and labels:
[1] = molecular target: T1, riboflavin binding protein (RfBP) (Gallus gallus, UniProt P02752)
T1 sequence (P02752 18-238): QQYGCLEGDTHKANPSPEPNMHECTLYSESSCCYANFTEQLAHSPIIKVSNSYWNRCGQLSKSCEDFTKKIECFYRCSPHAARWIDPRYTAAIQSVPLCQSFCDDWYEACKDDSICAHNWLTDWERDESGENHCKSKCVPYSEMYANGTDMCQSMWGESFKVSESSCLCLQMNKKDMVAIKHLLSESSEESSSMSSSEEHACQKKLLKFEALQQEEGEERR

[2] = molecular target: T2, ribonuclease A (RNase) (Bos taurus, UniProt P61823); format: binding
T2 sequence (P61823 27-150): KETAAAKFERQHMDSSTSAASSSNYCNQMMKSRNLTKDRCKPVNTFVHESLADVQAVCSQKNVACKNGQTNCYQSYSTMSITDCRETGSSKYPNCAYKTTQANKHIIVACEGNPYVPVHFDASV

[3] = molecular target: T1, riboflavin binding protein (RfBP); remark: listed apart in the source

Compound | absorbance and fluorescence titration; stopped-flow; DTNB protection [1] | absorbance and fluorescence titration; DTNB protection [2] | absorbance (252 nm) and fluorescence titration; DTNB protection [3]
C[As](O)O [MMA] | PSAO and MMA bind almost quantitatively to reduced unfolded RfBP |  | 
O[As](O)O [arsenite] |  | Figure 7A demonstrates the binding of arsenite to reduced bovine pancreatic RNase using absorbance and fluorescence quenching | PSAO and arsenite also bind to reduced RfBP with a strong fluorescence quenching
